# Where a name gives a salt, the structure may show the parent alone.
# How the values were obtained:
# [1] = biological target: hDAT (Homo sapiens, UniProt Q01959); test: Inhibition of [3H]DA uptake by cloned human DAT in HEK293 cells; conditions: nM, HEK293 cells expressing hDAT, average±S.E.M., 3 to 10 determinations
# [2] = found earlier by the authors; no reference given; cited from earlier work
# [3] = biological target: hNET (Homo sapiens, UniProt P23975); test: Inhibition of [3H]DA uptake by cloned human NET in HEK293 cells; conditions: NET uptake, Ki, nM [3H]DA, HEK293 cells expressing hNET; average±S.E.M., 3 to 10 determinations
# [4] = biological target: hSERT (Homo sapiens, UniProt P31645); test: Inhibition of [3H]5-HT uptake by cloned human SERT in HEK293 cells
# [5] = Plasma concentration after oral administration in rats; type: in vivo; conditions: rat, male Sprague-Dawley rats, 25 mg/kg PO
# Procedure: Sample preparation: Following oral administration of 25 mg/kg of D-473 and D-142 in male Sprague Dawley rats, the blood samples were collected at different time points over a period of 8 h for analysis. Concentrations of D-473 and D-142 in plasma were quantitated using a set of calibration standards prepared in blank matrix that were processed in parallel. Plasma concentration evaluation was carried out by the CRO, Absorption System, PA. Additionally, brain uptake studies of D-473 were carried out at three different time points (2, 4 and 6 h) following oral administration of 25 mg/kg D-473. Concentrations of D-473 in rat brain were quantitated using a set of calibration standards which were prepared in blank brain homogenate matrix on the day of analysis. The standard samples (5, 10, 25, 100, 500, 1000, and 2000 ng/mL) for calibration curve were prepared by spiking 45 µL of blank rat plasma with 5 µL of appropriate working dilution of D-473 in acetonitrile. The bioanalytical sample preparation for brain and plasma analysis followed by quantification of test compounds entailed the addition of 250 µL acetonitrile to every 50 µL of standard and analyte samples to precipitate tissue plasma proteins and tissue macromolecules. These mixtures were then vortexed for 15 min at 1400 rpm. The suspensions were then clarified by centrifugation (18000 g, 10 min at 4°C), and each 150 µL of the resulting supernatant was mixed well with 50 µL 0.1% formic acid in 50/50 (v/v) ACN/water solution for about 10 sec. The mixtures were again centrifuged (18000 g, 10 min at 4°C) before 100 µL of clear supernatant were transferred to auto sampler vials for LC-MS/MS analysis.
# The analysis of blood sample was carried out by the CRO Absorption system, PA. Briefly, the analysis was carried out by Waters Acquity UPLC equipped with PE Sciex API4000 mass spectrometer. Reverse phase Waters Acquity BEH Phenyl Column 1.7micron, 2.1×30 mm column was used for analysis. 5 µL of sample solutions were injected with a flow rate 1 mL/min and the samples were eluted with gradient elution using solvent A (10% buffer: 90% water) and solvent B (10% buffer: 90% acetonitrile). Buffer used was 40 mM Ammonium Formate Buffer, pH 3.5. Pharmacokinetic prarameters were estimated by a non-compartmental model using WinNonlin v5.2.1 software.
# [6] = system: locomotor activity (horizontal activity); test: Locomotor activity in rats; type: in vivo; conditions: rat; 5 mg/kg i.p.; vs vehicle (P<0.001)
# Procedure: Sprague Dawley Rats were tested at 25 mg/kg oral dose of D-473 to monitor changes in any locomotor activity in acrylic Auto-Track/Opto-Varimex-4 System (Columbus Instrument; Columbus, Ohio). The purpose was to evaluate locomotor activity of the same doses of drug that were used in the forced swim test. Rats were acclimated in the test chambers for 1 h prior to oral administration of D-473. Locomotor activity of the drug was measured for a total of two hour post administration of the drug which corresponded to the time of measurement in the forced swimming experiment. GBR 12909 was studied as a control drug known to stimulate and was administered i.p. as in published studies; vehicle was orally administered.
# [7] = system: dialysate DOPAC; parameters: method as in PMID 2477259; conditions: DAT releaser; cited from earlier work
# Chain of hDAT (Q01959 whole entry): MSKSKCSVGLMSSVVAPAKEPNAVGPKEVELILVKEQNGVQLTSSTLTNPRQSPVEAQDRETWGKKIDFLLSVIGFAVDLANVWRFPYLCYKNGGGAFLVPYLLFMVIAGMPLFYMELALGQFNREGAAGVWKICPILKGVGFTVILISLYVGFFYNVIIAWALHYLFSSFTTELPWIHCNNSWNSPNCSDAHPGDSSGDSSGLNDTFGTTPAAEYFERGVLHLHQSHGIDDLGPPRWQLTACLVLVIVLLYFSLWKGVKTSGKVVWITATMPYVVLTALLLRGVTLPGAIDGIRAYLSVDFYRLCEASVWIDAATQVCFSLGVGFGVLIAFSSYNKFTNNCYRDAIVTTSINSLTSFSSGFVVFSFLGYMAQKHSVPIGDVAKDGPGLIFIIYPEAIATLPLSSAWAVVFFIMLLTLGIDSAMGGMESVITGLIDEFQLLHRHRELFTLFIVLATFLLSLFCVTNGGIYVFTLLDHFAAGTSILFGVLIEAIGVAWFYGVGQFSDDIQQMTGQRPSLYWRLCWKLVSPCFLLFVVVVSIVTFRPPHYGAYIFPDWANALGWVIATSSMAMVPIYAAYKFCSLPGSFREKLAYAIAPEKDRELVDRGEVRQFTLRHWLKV
# Chain of hNET (P23975 whole entry): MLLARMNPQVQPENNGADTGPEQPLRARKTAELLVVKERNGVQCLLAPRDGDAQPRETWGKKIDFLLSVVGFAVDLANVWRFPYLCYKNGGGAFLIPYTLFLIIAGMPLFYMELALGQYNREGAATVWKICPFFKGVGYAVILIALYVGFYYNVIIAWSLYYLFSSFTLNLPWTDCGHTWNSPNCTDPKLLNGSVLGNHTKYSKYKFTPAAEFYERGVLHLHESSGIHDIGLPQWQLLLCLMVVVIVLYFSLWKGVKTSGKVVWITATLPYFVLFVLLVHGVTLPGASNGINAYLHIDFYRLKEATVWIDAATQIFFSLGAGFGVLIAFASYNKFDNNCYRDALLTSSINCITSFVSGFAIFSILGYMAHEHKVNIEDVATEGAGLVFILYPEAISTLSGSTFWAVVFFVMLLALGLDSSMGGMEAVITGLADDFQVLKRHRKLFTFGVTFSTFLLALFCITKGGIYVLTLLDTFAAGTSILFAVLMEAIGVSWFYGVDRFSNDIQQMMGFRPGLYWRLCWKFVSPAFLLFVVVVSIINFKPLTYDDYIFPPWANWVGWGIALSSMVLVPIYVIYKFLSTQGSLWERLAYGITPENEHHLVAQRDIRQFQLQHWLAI
# Chain of hSERT (P31645 whole entry): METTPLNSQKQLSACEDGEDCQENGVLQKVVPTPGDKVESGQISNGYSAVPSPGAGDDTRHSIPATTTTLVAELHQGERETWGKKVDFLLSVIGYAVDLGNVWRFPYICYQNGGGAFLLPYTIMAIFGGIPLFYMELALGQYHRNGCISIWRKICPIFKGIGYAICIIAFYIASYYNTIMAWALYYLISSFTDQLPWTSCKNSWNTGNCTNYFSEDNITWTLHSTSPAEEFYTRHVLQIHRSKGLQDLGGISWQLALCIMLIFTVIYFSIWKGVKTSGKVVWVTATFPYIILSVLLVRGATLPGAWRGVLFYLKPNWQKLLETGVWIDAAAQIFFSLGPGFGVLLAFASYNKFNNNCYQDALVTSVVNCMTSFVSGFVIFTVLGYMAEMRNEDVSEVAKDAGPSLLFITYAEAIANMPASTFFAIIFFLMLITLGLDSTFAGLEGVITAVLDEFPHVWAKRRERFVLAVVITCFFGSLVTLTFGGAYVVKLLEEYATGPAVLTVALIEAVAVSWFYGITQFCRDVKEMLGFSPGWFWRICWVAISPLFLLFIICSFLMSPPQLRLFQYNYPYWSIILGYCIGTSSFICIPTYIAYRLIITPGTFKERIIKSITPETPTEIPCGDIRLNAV
smiles,measurement,setting,value
"COc1ccc(CN[C@@H]2CO[C@H](C(c3ccc(F)cc3)c3ccc(F)cc3)C[C@H]2O)cc1 (as salt: hydrochloride) [Compound D-473, (2S,4R,5R)-2-(bis(4-fluorophenyl)methyl)-5-((4-methoxybenzyl)amino)tetrahydro-2H-pyran-4-ol]",melting point,,190 to 205 °C
COc1ccc(CN[C@@H]2CO[C@H](C(c3ccccc3)c3ccccc3)C[C@H]2O)cc1 [Compound D-142],Ki,[1],179 ± 27 nM
same,Oral bioavailability,[2],poor oral bioavailability
same,Ki,[3],21.2 ± 4.3 nM
same,Ki,[4],5.43 ± 1.4 nM
same,Cmax,"[5]; 3% HPßCD in water, read-out: Average maximum plasma concentration, Cmax",125 ± 36.6 ng/mL
same,half-life,[5]; read-out: Average half-life (converted),2.5 ± 0.96 h
"Fc1ccc(C(OCCN2CCN(CCCc3ccccc3)CC2)c2ccc(F)cc2)cc1 [GBR 12909, 1-[2-[bis(4-fluorophenyl)methoxy]ethyl]-4-[3-phenylpropyl]piperazine, reference compound]",Locomotor activity (horizontal activity),[6],significant rise
CC(N)Cc1ccccc1 (stereo not drawn) [amphetamine],Reductions in DOPAC,[7],~65%
